Reference: patent publication US20230105108A1, “COMPOUNDS FOR THE TREATMENT OF BACTERIAL INFECTIONS AND POTENTIATION OF ANTIBIOTICS” (GEORGIA STATE UNIVERSITY RESEARCH FOUNDATION, INC., priority 2019, published 2023)
pIC50: −log10 of the molar value. Where a name gives a salt, the structure may show the parent alone.

Columns and labels:
Assay type in all cases: cell-based
[1] = system: E. coli (ATCC 25922); assay: Antibiotic uptake in the presence and absence of MD-100 (HPLC); details: E. coli lysate, presence vs absence of 25 μg/ml MD-100
Method: Direct comparison of the antibiotic uptake in the presence and absence of MD-100 through HPLC study. E. coli (ATCC 25922) was cultured in Mueller Hinton II cation-adjusted broth for overnight at 37° C. to reach a density of OD600 of 0.8 to 1.0. To 20 ml fresh Mueller Hinton II cation-adjusted broth was added 50 μl E. coli stock, 200 μl 5 mg/ml O—CH3 novobiocin and 100 μl 10 mM MD-100. In the other group, the same amount of E. coli stock, O—CH3 novobiocin was used in the absence of MD-100. Then E. coli was incubated for 20 h at 37° C. with continuous shaking of 200 rpm. After, the E. coli suspension was centrifuged at 3000 g for 10 min and the culture media was removed to obtain bacteria pallet. The pallets from the two groups was re-suspended in PBS to reach the same OD600 of 2.0. To this E. coli suspension was spiked with 10 μM internal standard. 1 ml E. coli from each group in PBS was lysed by sonication on ice for 15 min, followed by adding 2 ml MeOH, the mixture was then centrifuged at 3000 g for 5 min and the supernatant was analyzed by HPLC. 20 μl of each sample was injected into Shimadzu Prominence UFLC (column: Waters C18, […], 4.6×100 mm, injection loop volume: 20 μl). The mobile phase was acetonitrile (ACN)/H2O (with 0.05% trifluoroacetic acid in the aqueous) with ratios defined as: 20%˜55% ACN, 0˜10 min; 55%˜65% ACN, 10˜20 min; 65%˜20% ACN, 20˜25 min. […]

[2] = IC50 of Table 7 (cell line not stated)
[3] = system: A. baumannii (ATCC 17978); assay: MIC, sensitization fold and FIC index on A. baumannii; details: Acinetobacter baumannii, ATCC17978; A. baumannii; read-out: MIC of MD-124
[4] = system: mcr-1 over-expressing E. coli strains; assay: microbe, parasite or virus in culture
[5] = system: NDM-1 expressing E. coli strain; assay: microbe, parasite or virus in culture; details: Escherichia coli; NDM-1 expressing E. coli; read-out: MIC of MD-124

| Structure (SMILES) | relative intracellular concentration of O-methyl novobiocin [1] | pIC50 [2] | MIC [3] [µg/mL] | MIC ([4]; Escherichia coli, mcr-1 over-expression E. coli, read-out: MIC of MD-124) [µg/mL] | MIC of Rif with 3 μg/ml MD-124 ([4]; strain mcr-1 A) | Sensitization fold with 3 μg/ml MD-124 ([4]; strain mcr-1 A, rifampicin, dihydrochloride) [fold] | MIC of Rif with 3 μg/ml MD-124 ([4]; strain mcr-1 B) | MIC of Rif with 5 μg/ml MD-124 ([4]; strain mcr-1 B) | Sensitization fold with 3 μg/ml MD-124 ([4]; strain mcr-1 B, rifampicin) [fold] | Sensitization fold with 5 μg/ml MD-124 ([4]; strain mcr-1 B, rifampicin) [fold] | MIC [5] [µg/mL] |
| --- | --- | --- | --- | --- | --- | --- | --- | --- | --- | --- | --- |
| Cc1cc(COc2ccc(C(=N)N)cc2)cc(COc2ccc(C(=N)N)cc2)c1 [MD-100, 4,4′-(((5-methyl-1,3-phenylene)bis(methylene))bis(oxy))dibenzimidamide dihydrochloride] | greatly increased | 4.00 | – | – | – | – | – | – | – | – | – |
| N=C(N)c1ccc(COc2cc(OCc3ccc(C(=N)N)cc3)cc(C(F)(F)F)c2)cc1 [MD-124, 4,4′-(((5-(trifluoromethyl)-1,3-phenylene)bis(oxy))bis(methylene)) dibenzimidamide dihydrochloride] | – | – | 25 | 12.5 | 0.32 | 16 | 1.25 | 0.16 | 4 | 32 | 50 |
